# Test results taken from patent publication US7157083B2, “Compositions and methods for treating retroviral infections” (priority 1998, dated 2007).
# Assays:
# IIIB (HIV IIIB virus) = experiment: Study 4 sensitization, Turpin and standard macrophages: RT activity after IIIB challenge; format: cell-based; conditions: viability corrected
# Procedure: (§1) Percent virus control (% VC) in the following tables is the mean RT activity (cpm) as a percentage of a virus control. Percent cell control (% CC) is the mean XTT absorbance as a percentage of a cell control.
# (§2) Reverse transcriptase (RT) activity was measured in cell-free supernatants. Tritiated thymidine triphosphate (NEN) (TTP) was resuspended in distilled H2O at […]. Poly rA and oligo dT were prepared as a stock solution which was kept at −20° C. The RT reaction buffer was prepared fresh on a daily basis and consists of 125 μL 1.0 M EGTA, 125 μL d H2O, 110 μL 10% SDS, 50 μL 1.0 M Tris (pH 7.4), 50 μL 1.0 M DTT, and 40μ1.0 M MgCl2. These three solutions were mixed together in a ratio of 2 parts TTP, 1 part poly rA:oligo dT, and 1 part reaction buffer. Ten microliters of this reaction mixture was placed in a round bottom microtiter plate and 15 μL of virus containing supernatant was added and mixed. The plate was incubated at 37° C. in a water bath with a solid support to prevent submersion of the plate and incubated for 60 minutes. Following reaction, the reaction volume was spotted onto pieces of DE81 paper, washed 5 times for 5 minutes each in a 5% sodium phosphate buffer, 2 times for 1 minute each in distilled water, 2 times for 1 minute each in 70% ethanol, and then dried. Opti-Fluor O was added to each sample and incorporated radioactivity was quantitated utilizing a Wallace 1450 Microbetaplus liquid scintillation counter.
# The macrophage plates were then washed with HBSS multiple times. Fresh mixed pha blast PBMCs (5×10e4/well) were placed on the macrophage cells, allowed to incubate for 72 hours and then harvested and reset in a fresh 96 well plate. The PBMCs were then challenged overnight with the respective virus (IIIB or Rojo) at a standard MOI for that virus. The PBMCs were 5× in plate spin washed with DPBS, incubated 24 hours, at which time 5×10e4 fresh pha blast PBMCs/well were added. The culture was incubated an additional 6 days and then assayed for RT activity.
# Where viability corrections were conducted, they were performed by dividing the RT CPM value by the toxicity absorbance in order to compensate for well to well variations noted in the cell titer toxicity noted.
# Rojo virus = experiment: Study 3 hyaluronidase sensitization assay: RT activity after Rojo challenge of naive PBMCs; format: cell-based, HIV-1
# Procedure: as §1, §2
# Assay Summary. […] The the monolayers were 3× washed with PBS, with Human PBMCs (5×10e4/well) returned to the monolayer. The PBMCs were either mixed donor, PHA blast, with IL2 supplemented medium, or were single donor non-PHA blast/no IL2 supplemented. After 72 hours, the PBMCs were removed, reset in a 96 well plate and then challenged with a standard MOI of the Rojo virus. The plates were incubated for an additional 6 days and then assayed for RT activity. The studies were produced in triplicate.
substance,measurement,setting,value
Hyaluronidase,RT activity % VC,"IIIB (HIV IIIB virus); 6.25 μg/mL, IIIB Sensitized, Standard",181.7%
same,RT activity % VC,"IIIB (HIV IIIB virus); 6.25 μg/mL, IIIB Sensitized, Turpin",63.4%
same,RT activity % VC,"IIIB (HIV IIIB virus); 25 μg/mL, GP120IIIB Sensitized, Standard",81.6%
same,RT activity % VC,"IIIB (HIV IIIB virus); 25 μg/mL, GP120IIIB Sensitized, Turpin",54.1%
same,RT activity % VC,"IIIB (HIV IIIB virus); 25 μg/mL, IIIB Sensitized, Standard",124.6%
same,RT activity % VC,"IIIB (HIV IIIB virus); 25 μg/mL, IIIB Sensitized, Turpin",26.6%
same,RT activity % VC,"Rojo virus; 0.20 μg/mL, 5 μL GP120 IIIB, With PHA/IL2",78.6%
same,RT activity % VC,"Rojo virus; 0.20 μg/mL, 5 μL GP120 IIIB, Without PHA/IL2",155.9%
same,RT activity % VC,"Rojo virus; 0.20 μg/mL, 5 μL Rojo, With PHA/IL2",88.8%
same,RT activity % VC,"Rojo virus; 0.20 μg/mL, 5 μL Rojo, Without PHA/IL2",77.8%
same,RT activity % VC,"Rojo virus; 0.20 μg/mL, 10 μL Rojo, Without PHA/IL2",112.8%
same,RT activity % VC,"Rojo virus; 0.20 μg/mL, 50 μL Rojo, With PHA/IL2",79.1%
same,RT activity % VC,"Rojo virus; 0.20 μg/mL, 50 μL Rojo, Without PHA/IL2",125.8%
same,RT activity % VC,"Rojo virus; 0.39 μg/mL, 5 μL GP120 IIIB, With PHA/IL2",116.1%
same,RT activity % VC,"Rojo virus; 0.39 μg/mL, 5 μL GP120 IIIB, Without PHA/IL2",195.6%
same,RT activity % VC,"Rojo virus; 0.39 μg/mL, 5 μL Rojo, With PHA/IL2",79.7%
same,RT activity % VC,"Rojo virus; 0.39 μg/mL, 5 μL Rojo, Without PHA/IL2",102.7%
same,RT activity % VC,"Rojo virus; 0.39 μg/mL, 10 μL Rojo, With PHA/IL2",123.2%
same,RT activity % VC,"Rojo virus; 0.39 μg/mL, 10 μL Rojo, Without PHA/IL2",115.9%
same,RT activity % VC,"Rojo virus; 0.39 μg/mL, 50 μL Rojo, With PHA/IL2",87.6%
same,RT activity % VC,"Rojo virus; 0.39 μg/mL, 50 μL Rojo, Without PHA/IL2",149.4%
same,RT activity % VC,"Rojo virus; 0.78 μg/mL, 5 μL GP120 IIIB, With PHA/IL2",101.9%
same,RT activity % VC,"Rojo virus; 0.78 μg/mL, 5 μL GP120 IIIB, Without PHA/IL2",134.4%
same,RT activity % VC,"Rojo virus; 0.78 μg/mL, 5 μL Rojo, With PHA/IL2",68.2%
same,RT activity % VC,"Rojo virus; 0.78 μg/mL, 5 μL Rojo, Without PHA/IL2",7.0%
same,RT activity % VC,"Rojo virus; 0.78 μg/mL, 10 μL Rojo, With PHA/IL2",110.5%
same,RT activity % VC,"Rojo virus; 0.78 μg/mL, 10 μL Rojo, Without PHA/IL2",97.6%
same,RT activity % VC,"Rojo virus; 0.78 μg/mL, 50 μL Rojo, With PHA/IL2",102.6%
same,RT activity % VC,"Rojo virus; 1.56 μg/mL, 5 μL GP120 IIIB, With PHA/IL2",98.0%
same,RT activity % VC,"Rojo virus; 1.56 μg/mL, 5 μL GP120 IIIB, Without PHA/IL2",158.5%
same,RT activity % VC,"Rojo virus; 1.56 μg/mL, 5 μL Rojo, With PHA/IL2",59.0%
same,RT activity % VC,"Rojo virus; 1.56 μg/mL, 5 μL Rojo, Without PHA/IL2",6.4%
same,RT activity % VC,"Rojo virus; 1.56 μg/mL, 10 μL Rojo, With PHA/IL2",125.9%
same,RT activity % VC,"Rojo virus; 1.56 μg/mL, 10 μL Rojo, Without PHA/IL2",115.6%
same,RT activity % VC,"Rojo virus; 1.56 μg/mL, 50 μL Rojo, With PHA/IL2",115.7%
same,RT activity % VC,"Rojo virus; 1.56 μg/mL, 50 μL Rojo, Without PHA/IL2",146.0%
same,RT activity % VC,"Rojo virus; 3.1 μg/mL, 5 μL GP120 IIIB, With PHA/IL2",85.5%
same,RT activity % VC,"Rojo virus; 3.1 μg/mL, 5 μL GP120 IIIB, Without PHA/IL2",145.7%
same,RT activity % VC,"Rojo virus; 3.1 μg/mL, 5 μL Rojo, With PHA/IL2",56.0%
same,RT activity % VC,"Rojo virus; 3.1 μg/mL, 5 μL Rojo, Without PHA/IL2",9.7%
same,RT activity % VC,"Rojo virus; 3.1 μg/mL, 10 μL Rojo, With PHA/IL2",117.8%
same,RT activity % VC,"Rojo virus; 3.1 μg/mL, 10 μL Rojo, Without PHA/IL2",97.3%
same,RT activity % VC,"Rojo virus; 3.1 μg/mL, 50 μL Rojo, With PHA/IL2",97.3%
same,RT activity % VC,"Rojo virus; 3.1 μg/mL, 50 μL Rojo, Without PHA/IL2",86.8%
same,RT activity % VC,"Rojo virus; 6.3 μg/mL, 5 μL GP120 IIIB, With PHA/IL2",105.3%
same,RT activity % VC,"Rojo virus; 6.3 μg/mL, 5 μL GP120 IIIB, Without PHA/IL2",71.7%
same,RT activity % VC,"Rojo virus; 6.3 μg/mL, 5 μL Rojo, Without PHA/IL2",15.7%
same,RT activity % VC,"Rojo virus; 6.3 μg/mL, 10 μL Rojo, Without PHA/IL2",67.1%
same,RT activity % VC,"Rojo virus; 6.3 μg/mL, 50 μL Rojo, With PHA/IL2",61.3%
same,RT activity % VC,"Rojo virus; 6.3 μg/mL, 50 μL Rojo, Without PHA/IL2",21.3%
same,RT activity % VC,"Rojo virus; 25 μg/mL, 5 μL GP120 IIIB, With PHA/IL2",85.5%
same,RT activity % VC,"Rojo virus; 25 μg/mL, 5 μL GP120 IIIB, Without PHA/IL2",8.8%
same,RT activity % VC,"Rojo virus; 25 μg/mL, 5 μL Rojo, Without PHA/IL2",8.8%
same,RT activity % VC,"Rojo virus; 25 μg/mL, 10 μL Rojo, With PHA/IL2",97.3%
same,RT activity % VC,"Rojo virus; 25 μg/mL, 10 μL Rojo, Without PHA/IL2",2.3%
same,RT activity % VC,"Rojo virus; 25 μg/mL, 50 μL Rojo, With PHA/IL2",73.4%
same,RT activity % VC,"Rojo virus; 25 μg/mL, 50 μL Rojo, Without PHA/IL2",8.4%
